These are literature values, as cited in patent US20210045998A1 (priority 2018, published 2021).

The conditions of this data set: in vivo.

`CC1=CC[C@H]2C[C@@H]1C2(C)C` [α-Pinene, (1S,5S)-2,6,6-Trimethylbicyclo[3.1.1]hept-2-ene]: the human pulmonary uptake was 60%.
